Tests used:
Type in all cases: cell-based
filaggrin = experiment: Filaggrin protein expression (western blot) in HaCaT human keratinocytes; settings: HaCaT cells, fucosterol 5, 10, 20 μM, 24 hrs, FIG. 12
Method: (§1) HaCaT human keratinocytes were incubated in a Dulbecco's Modified Eagle's Media (DMEM) medium including 10% fetal bovine serum and then put in a 6-well plate with 2×10^5 cell/ml (the final volume of 3 ml). After being incubated for 24 hrs, the medium was removed and fucosterol which was dissolved in the DMEM medium was treated at 5, 10, and 20 μM concentrations, respectively. After 24 hrs, the HaCaT human keratinocytes were lysed with a NP40 buffer solution including proteinase inhibitor cocktail. The protein amount extracted from the HaCaT human keratinocytes was quantified by using a Bradford method. The sample was boiled for 5 min and then the same amount of protein ([…]) was isolated by electrophoresis with 10% SDS-PAGE. The isolated proteins after electrophoresis were transferred to a nitrocellular membrane and western blot was performed. A primary antibody was reacted and the nitrocellular membrane was washed three times by using Tris-buffer saline tween20 (TBST) for 10 min. In this case, the kind and the dilution of the primary antibody used in the present invention is 1:1000. In a secondary antibody reaction, a secondary antibody was put in the membrane performing the primary antibody reaction and reacted for 2 hrs at room temperature. In this case, a dilution of the secondary antibody was 1:5000. […]

loricrin = experiment: Loricrin protein expression (western blot) in HaCaT human keratinocytes; settings: HaCaT cells, fucosterol 5, 10, 20 μM, 24 hrs, FIG. 10
Method: as §1

transglutaminase = experiment: Transglutaminase protein expression (western blot) in HaCaT human keratinocytes; settings: HaCaT cells, fucosterol 5, 10, 20 μM, 24 hrs, FIG. 10
Method: as §1

[1] = tested on: MITF (microphthalmia transcription factor); experiment: MITF mRNA expression (RT-PCR) in B16F10 melanoma cells; settings: 200 nM α-MSH, fucosterol 5 and 20 μM, 24 hrs, FIG. 7
Method: B16F10 melanoma cells were incubated in a DMEM medium including 10% fetal bovine serum and then added in a 6-well plate with 2.5×10^5 cell/mL (the final volume of 3 mL). After being incubated for 24 hrs, the medium was removed and fucosterol which was dissolved in the DMEM medium including 200 nM α-MSH was treated at 5 and 20 μM of concentrations, respectively. After 24 hrs, the total RNA was isolated by using a TRIzol reagent (Invitrogen, Carlsbad, Calif., USA). The isolated total RNAs were quantified by using a nano-drop (ND-1000). The quantified RNA was synthesized to cDNA by using reverse transcriptase and a PCR machine (Applied biosystems, Foster city, CA, USA) and then the PCR was performed with specific primers below.
As the PCR result, the amplified cDNA was isolated with a 1.5% agarose gel by electrophoresis and cDNA bands were verified by using a G:BOX EF imaging system (Syngene, Cambridge, UK), and the result was illustrated in FIG. 7.

B16F10 melanoma cells = experiment: Microscopic observation of melanin generation in α-MSH-stimulated B16F10 melanoma cells; settings: 200 nM α-MSH, fucosterol 5 and 20 μM, 72 hrs, FIG. 3
Method: B16F10 melanoma cells were incubated in a DMEM medium including 10% fetal bovine serum and then added in a 6-well plate with 2.5×10^5 cell/mL (the final volume of 3 mL). After being incubated for 24 hrs, the medium was removed and fucosterol which was dissolved in the DMEM medium including 200 nM α-MSH was treated at 5 and 20 μM of concentrations, respectively. After 72 hrs, the incubated medium was removed from the 6-well plate and the B16F10 melanoma cells were photographed by using a microscope (Olympus IX71 Model), and the result was illustrated in FIG. 3.

C/C=C(\CC[C@@H](C)[C@H]1CC[C@H]2[C@@H]3CC=C4C[C@@H](O)CC[C@]4(C)[C@H]3CC[C@]12C)C(C)C [fucosterol]
protein expression of filaggrin (filaggrin): increased
protein expression of loricrin (loricrin): increased
protein expression of transglutaminase (transglutaminase): increased
mRNA amount of MITF [1]: reduced
melanin generation, microscopic observation (B16F10 melanoma cells): largely inhibited

Source: patent US9956157B2, “Composition containing fucosterol for skin whitening or moisturizing” (INDUSTRY-ACADEMIC COOPERATION FOUNDATION, YONSEI UNIVERSITY, priority 2014, dated 2018)
